Data: patent US10246411B2, “(Z)-3,4,5-trimethoxystyrylbenzenesulfonamides as potential anticancer agents” (COUNCIL OF SCIENTIFIC & INDUSTRIAL RESEARCH, priority 2014, dated 2019)

What was measured:
HS 578T = assay: In vitro cytotoxicity (NCI protocol, SRB), HS 578T; settings: Homo sapiens, 48 h
SR = assay: In vitro cytotoxicity (NCI protocol, SRB), SR; settings: Homo sapiens, 48 h
OVCAR-4 = assay: In vitro cytotoxicity (NCI protocol, SRB), OVCAR-4; settings: Homo sapiens, OVCAR-4, 48 h
MOLT-4 = assay: In vitro cytotoxicity (NCI protocol, SRB), MOLT-4; settings: Homo sapiens, MOLT-4, 48 h
SF-268 = assay: In vitro cytotoxicity (NCI protocol, SRB), SF-268; settings: Homo sapiens, SF-268, 48 h
PC-3 = assay: In vitro cytotoxicity (NCI protocol, SRB), PC-3; settings: Homo sapiens, PC-3, 48 h
HL-60(TB) = assay: In vitro cytotoxicity (NCI protocol, SRB), HL-60(TB); type: cell-based; settings: Homo sapiens, Leukemia HL-60(TB), 48 h exposure
SK-MEL-2 = assay: In vitro cytotoxicity (NCI protocol, SRB), SK-MEL-2; settings: Homo sapiens, SK-MEL-2, 48 h
SF-295 = assay: In vitro cytotoxicity (NCI protocol, SRB), SF-295; settings: Homo sapiens, SF-295, 48 h
BT-549 = assay: In vitro cytotoxicity (NCI protocol, SRB), BT-549; settings: Homo sapiens, BT-549, 48 h
A498 = assay: In vitro cytotoxicity (NCI protocol, SRB), A498; settings: Homo sapiens, A498, 48 h
UACC-62 = assay: In vitro cytotoxicity (NCI protocol, SRB), UACC-62; settings: Homo sapiens, UACC-62, 48 h
HOP-62 = assay: In vitro cytotoxicity (NCI protocol, SRB), HOP-62; settings: Homo sapiens, HOP-62, 48 h
OVCAR-3 = assay: In vitro cytotoxicity (NCI protocol, SRB), OVCAR-3; settings: Homo sapiens, OVCAR-3, 48 h
HCT-15 = assay: In vitro cytotoxicity (NCI protocol, SRB), HCT-15; settings: Homo sapiens, HCT-15, 48 h
K-562 = assay: In vitro cytotoxicity (NCI protocol, SRB), K-562; settings: Homo sapiens, K562, 48 h
SK-OV-3 = assay: In vitro cytotoxicity (NCI protocol, SRB), SK-OV-3; settings: Homo sapiens, SK-OV-3, 48 h
SK-MEL-28 = assay: In vitro cytotoxicity (NCI protocol, SRB), SK-MEL-28; settings: Homo sapiens, SK-MEL-28, 48 h
NCI/ADR-RES = assay: In vitro cytotoxicity (NCI protocol, SRB), NCI/ADR-RES; settings: Homo sapiens, 48 h
MCF7 = assay: In vitro cytotoxicity (NCI protocol, SRB), MCF7; settings: Homo sapiens, MCF7, 48 h
U251 = assay: In vitro cytotoxicity (NCI protocol, SRB), U251; settings: Homo sapiens, U-251, 48 h
OVCAR-8 = assay: In vitro cytotoxicity (NCI protocol, SRB), OVCAR-8; settings: Homo sapiens, OVCAR-8, 48 h
OVCAR-5 = assay: In vitro cytotoxicity (NCI protocol, SRB), OVCAR-5; settings: Homo sapiens, OVCAR-5, 48 h
NCI-H522 = assay: In vitro cytotoxicity (NCI protocol, SRB), NCI-H522; settings: Homo sapiens, NCI-H522, 48 h
HT29 = assay: In vitro cytotoxicity (NCI protocol, SRB), HT29; settings: Homo sapiens, HT-29, 48 h
NCIH322M = assay: In vitro cytotoxicity (NCI protocol, SRB), NCIH322M; settings: Homo sapiens, NCI-H322M, 48 h
SK-MEL-5 = assay: In vitro cytotoxicity (NCI protocol, SRB), SK-MEL-5; settings: Homo sapiens, SK-MEL-5, 48 h
RXF 393 = assay: In vitro cytotoxicity (NCI protocol, SRB), RXF 393; settings: Homo sapiens, RXF 393, 48 h
DU-145 = assay: In vitro cytotoxicity (NCI protocol, SRB), DU-145; settings: Homo sapiens, DU-145, 48 h
T-47D = assay: In vitro cytotoxicity (NCI protocol, SRB), T-47D; settings: Homo sapiens, T47D, 48 h

Compound | GI50 (HS 578T) | GI50 (SR) | GI50 (OVCAR-4) | GI50 (MOLT-4) | GI50 (SF-268) | GI50 (PC-3) | GI50 (HL-60(TB)) | GI50 (SK-MEL-2) | GI50 (SF-295) | GI50 (BT-549) | GI50 (A498) | GI50 (UACC-62) | GI50 (HOP-62) | GI50 (OVCAR-3) | GI50 (HCT-15) | GI50 (K-562) | GI50 (SK-OV-3) | GI50 (NCI/ADR-RES) | GI50 (MCF7) | GI50 (U251) | other results
COc1ccc(S(=O)(=O)Nc2cc(/C=C\c3cc(OC)c(OC)c(OC)c3)ccc2OC)cc1 [12a, (Z)-4-methoxy-N-(2-methoxy-5-(3,4,5-trimethoxystyryl)phenyl)benzenesulfonamide] | 226 nM | 70.9 nM | 581 nM | 388 nM | 401 nM | 124 nM | 195 nM | 80.3 nM | 39.3 nM | 197 nM | 35.3 nM | 49 nM | 41 nM | 52.8 nM | 62.3 nM | 53 nM | 96.3 nM | 71.1 nM | 42.6 nM | 108 nM | GI50 (SK-MEL-28): 143 nM; GI50 (OVCAR-8): 276 nM; GI50 (OVCAR-5): 323 nM; GI50 (NCI-H522): 20.4 nM; GI50 (HT29): 81 nM; GI50 (NCIH322M): 430 nM; GI50 (SK-MEL-5): 48.8 nM; GI50 (RXF 393): 81.4 nM; GI50 (DU-145): 341 nM
COc1ccc(S(=O)(=O)Nc2cc(/C=C\c3cc(OC)c(OC)c(OC)c3)cc(OC)c2OC)cc1 [13a, (Z)—N-(2,3-dimethoxy-5-(3,4,5-trimethoxystyryl)phenyl)-4-methoxybenzenesulfonamide] | 45.2 nM | 35.2 nM | 84.2 nM | 49.5 nM | 57.5 nM | 38 nM | 23.4 nM | 37.4 nM | 31.1 nM | 42.5 nM | 21.7 nM | 46.1 nM | 40.5 nM | 34.5 nM | 35.8 nM | 27.2 nM | 37.8 nM | 35.3 nM | 36 nM | 35.7 nM | GI50 (T-47D): 5210 nM; GI50 (SK-MEL-28): 76.5 nM; GI50 (OVCAR-8): 45.9 nM; GI50 (OVCAR-5): 49.9 nM; GI50 (NCI-H522): 19.7 nM; GI50 (HT29): 33.1 nM; GI50 (NCIH322M): 55.3 nM; GI50 (SK-MEL-5): 35.9 nM; GI50 (RXF 393): 40.1 nM; GI50 (DU-145): 41.6 nM
COc1cc(/C=C\c2cc(OC)c(OC)c(OC)c2)cc(NS(=O)(=O)c2ccc(Cl)cc2)c1OC [13c, (Z)-4-chloro-N-(2,3-dimethoxy-5-(3,4,5-trimethoxystyryl)phenyl)benzenesulfonamide] | 351 nM | 406 nM | 1530 nM | 672 nM | 1100 nM | 395 nM | 249 nM | 613 nM | 319 nM | 966 nM | 179 nM | 435 nM | 414 nM | 364 nM | 399 nM | 306 nM | 449 nM | 364 nM | 375 nM | 461 nM | GI50 (T-47D): 381 nM; GI50 (SK-MEL-28): 1140 nM; GI50 (OVCAR-8): 600 nM; GI50 (OVCAR-5): 726 nM; GI50 (NCI-H522): 209 nM; GI50 (HT29): 348 nM; GI50 (NCIH322M): 759 nM; GI50 (SK-MEL-5): 297 nM; GI50 (RXF 393): 272 nM; GI50 (DU-145): 507 nM
COc1ccc(S(=O)(=O)Nc2c(/C=C\c3cc(OC)c(OC)c(OC)c3)ccc(OC)c2O)cc1 [17a, (Z)—N-(2-hydroxy-3-methoxy-6-(3,4,5-trimethoxystyryl)phenyl)-4-methoxybenzenesulfonamide] | 47 nM | 31.9 nM | 76.3 nM | 42.3 nM | 83.9 nM | 40.8 nM | 23.5 nM | 43.7 nM | 33.9 nM | 50.1 nM | 18.8 nM | 38.9 nM | 39.7 nM | 33.9 nM | 36.6 nM | 28.6 nM | 29.6 nM | 155 nM | 38 nM | 37.4 nM | GI50 (OVCAR-8): 46.6 nM; GI50 (OVCAR-5): 1020 nM; GI50 (NCI-H522): 20.2 nM; GI50 (HT29): 1400 nM; GI50 (NCIH322M): 63.3 nM; GI50 (SK-MEL-5): 36.3 nM; GI50 (RXF 393): 31.8 nM; GI50 (DU-145): 42.5 nM
COc1ccc(/C=C\c2cc(OC)c(OC)c(OC)c2)c(NS(=O)(=O)c2ccc(Cl)cc2)c1O [17c, (Z)-4-chloro-N-(2-hydroxy-3-methoxy-6-(3,4,5-trimethoxystyryl)phenyl)benzenesulfonamide] | 292 nM | 30.6 nM | 97.2 nM | 31.5 nM | 380 nM | 153 nM | 33.1 nM | 65.9 nM | 256 nM | 353 nM | 22.9 nM | 63.5 nM | 671 nM | 60.2 nM | 53 nM | 32.3 nM | 229 nM | 263 nM | 38.4 nM | 287 nM | GI50 (SK-MEL-28): 84.1 nM; GI50 (OVCAR-8): 294 nM; GI50 (OVCAR-5): 2860 nM; GI50 (NCI-H522): 84.8 nM; GI50 (HT29): 2760 nM; GI50 (NCIH322M): 485 nM; GI50 (SK-MEL-5): 51 nM; GI50 (RXF 393): 35.5 nM; GI50 (DU-145): 200 nM
